Key:
Androgen receptor = target: T1, Androgen receptor (Homo sapiens, UniProt P10275)
T1 sequence (P10275 whole entry): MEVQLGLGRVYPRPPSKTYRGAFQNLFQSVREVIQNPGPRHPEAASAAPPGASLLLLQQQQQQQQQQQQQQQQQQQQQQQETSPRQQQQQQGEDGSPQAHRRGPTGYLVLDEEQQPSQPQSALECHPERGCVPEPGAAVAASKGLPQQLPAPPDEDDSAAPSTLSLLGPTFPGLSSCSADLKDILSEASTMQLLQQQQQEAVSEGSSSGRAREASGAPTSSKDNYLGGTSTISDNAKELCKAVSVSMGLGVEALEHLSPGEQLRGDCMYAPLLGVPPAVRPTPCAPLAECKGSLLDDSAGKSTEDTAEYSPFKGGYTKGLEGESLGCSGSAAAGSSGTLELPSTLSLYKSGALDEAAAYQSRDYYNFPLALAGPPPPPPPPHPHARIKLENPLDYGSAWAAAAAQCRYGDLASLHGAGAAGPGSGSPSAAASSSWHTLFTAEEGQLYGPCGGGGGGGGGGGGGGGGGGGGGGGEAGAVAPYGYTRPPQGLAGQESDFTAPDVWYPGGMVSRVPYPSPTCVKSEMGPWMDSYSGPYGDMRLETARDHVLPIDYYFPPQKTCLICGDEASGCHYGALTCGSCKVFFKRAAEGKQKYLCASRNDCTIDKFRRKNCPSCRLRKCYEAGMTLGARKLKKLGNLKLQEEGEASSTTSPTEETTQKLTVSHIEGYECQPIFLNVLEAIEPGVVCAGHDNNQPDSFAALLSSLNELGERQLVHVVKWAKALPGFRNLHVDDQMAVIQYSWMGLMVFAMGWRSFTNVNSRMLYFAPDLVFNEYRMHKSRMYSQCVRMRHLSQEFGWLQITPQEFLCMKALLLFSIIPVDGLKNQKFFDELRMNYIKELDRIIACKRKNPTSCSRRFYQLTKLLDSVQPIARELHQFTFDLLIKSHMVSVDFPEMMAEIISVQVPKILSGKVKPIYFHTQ

Adenosine receptor A1 = target: T2, Adenosine receptor A1 (Homo sapiens, UniProt P30542)
T2 sequence (P30542 whole entry): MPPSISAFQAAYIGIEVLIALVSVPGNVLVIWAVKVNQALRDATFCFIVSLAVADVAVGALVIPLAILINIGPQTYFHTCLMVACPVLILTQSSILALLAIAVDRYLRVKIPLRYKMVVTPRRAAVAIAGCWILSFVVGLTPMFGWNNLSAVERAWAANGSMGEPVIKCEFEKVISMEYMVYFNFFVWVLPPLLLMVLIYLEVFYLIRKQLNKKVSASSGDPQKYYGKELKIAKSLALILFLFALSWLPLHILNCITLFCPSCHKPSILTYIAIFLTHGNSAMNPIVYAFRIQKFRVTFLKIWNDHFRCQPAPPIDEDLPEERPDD

[1] = target: Sodium channel protein type 5 subunit alpha (Homo sapiens, UniProt Q14524); type: functional, cell-based
Sodium channel protein type 5 subunit alpha, sequence (Q14524 whole entry): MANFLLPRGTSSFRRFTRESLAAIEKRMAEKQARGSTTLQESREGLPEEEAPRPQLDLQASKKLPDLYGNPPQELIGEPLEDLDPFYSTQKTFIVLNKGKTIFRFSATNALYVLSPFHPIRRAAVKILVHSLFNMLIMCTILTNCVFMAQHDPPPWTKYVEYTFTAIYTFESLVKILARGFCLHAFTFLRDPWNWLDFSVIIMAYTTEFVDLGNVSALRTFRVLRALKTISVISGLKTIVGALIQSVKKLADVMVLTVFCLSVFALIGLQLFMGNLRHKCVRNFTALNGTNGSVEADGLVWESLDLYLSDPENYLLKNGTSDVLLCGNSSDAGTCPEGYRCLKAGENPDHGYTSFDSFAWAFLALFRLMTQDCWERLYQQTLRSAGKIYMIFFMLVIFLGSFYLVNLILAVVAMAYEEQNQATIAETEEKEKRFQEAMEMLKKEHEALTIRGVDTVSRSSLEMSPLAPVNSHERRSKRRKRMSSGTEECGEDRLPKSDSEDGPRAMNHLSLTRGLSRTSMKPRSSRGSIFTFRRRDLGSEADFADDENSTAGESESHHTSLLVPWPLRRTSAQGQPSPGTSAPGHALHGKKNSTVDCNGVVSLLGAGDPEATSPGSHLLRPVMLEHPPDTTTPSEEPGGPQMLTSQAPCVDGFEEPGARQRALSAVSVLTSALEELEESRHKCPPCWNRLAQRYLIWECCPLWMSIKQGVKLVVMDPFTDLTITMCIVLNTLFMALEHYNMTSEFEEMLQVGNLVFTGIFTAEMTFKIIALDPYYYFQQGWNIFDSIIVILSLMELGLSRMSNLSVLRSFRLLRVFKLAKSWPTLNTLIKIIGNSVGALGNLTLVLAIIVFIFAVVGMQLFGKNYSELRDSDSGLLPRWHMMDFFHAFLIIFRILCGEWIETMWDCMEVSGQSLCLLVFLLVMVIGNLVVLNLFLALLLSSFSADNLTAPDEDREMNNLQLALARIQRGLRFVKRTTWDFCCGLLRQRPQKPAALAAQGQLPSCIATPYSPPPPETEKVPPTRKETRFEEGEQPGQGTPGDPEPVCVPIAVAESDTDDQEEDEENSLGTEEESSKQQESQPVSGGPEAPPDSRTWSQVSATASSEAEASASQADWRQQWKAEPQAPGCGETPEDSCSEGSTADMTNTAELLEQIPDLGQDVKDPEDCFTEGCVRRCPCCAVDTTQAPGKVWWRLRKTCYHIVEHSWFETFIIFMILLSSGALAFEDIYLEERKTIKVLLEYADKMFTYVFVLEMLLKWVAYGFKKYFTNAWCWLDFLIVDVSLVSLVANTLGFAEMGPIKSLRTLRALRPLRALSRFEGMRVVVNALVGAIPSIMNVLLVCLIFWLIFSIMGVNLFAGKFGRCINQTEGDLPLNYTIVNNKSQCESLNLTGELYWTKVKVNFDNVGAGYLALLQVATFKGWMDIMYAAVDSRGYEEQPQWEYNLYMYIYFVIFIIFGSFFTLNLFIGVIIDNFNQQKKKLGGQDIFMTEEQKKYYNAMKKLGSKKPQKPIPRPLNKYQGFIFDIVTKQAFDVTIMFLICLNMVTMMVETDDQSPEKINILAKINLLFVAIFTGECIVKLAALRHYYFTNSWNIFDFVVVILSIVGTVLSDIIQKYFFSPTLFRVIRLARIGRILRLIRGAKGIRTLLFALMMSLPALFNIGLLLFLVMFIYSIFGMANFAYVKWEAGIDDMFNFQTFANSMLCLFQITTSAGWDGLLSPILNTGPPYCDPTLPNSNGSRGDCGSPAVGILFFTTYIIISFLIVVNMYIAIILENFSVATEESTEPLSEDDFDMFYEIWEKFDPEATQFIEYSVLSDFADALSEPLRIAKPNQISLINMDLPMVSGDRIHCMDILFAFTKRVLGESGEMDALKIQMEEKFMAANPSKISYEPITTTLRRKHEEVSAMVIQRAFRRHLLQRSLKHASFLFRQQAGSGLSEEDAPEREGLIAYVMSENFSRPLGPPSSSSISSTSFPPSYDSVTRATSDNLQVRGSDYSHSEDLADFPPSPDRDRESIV

[2] = target: Gamma-aminobutyric acid receptor subunit alpha-1/alpha-2/beta-2/gamma-2 (Homo sapiens, UniProt P14867+P18507+P47869+P47870); type: protein-complex assay
Gamma-aminobutyric acid receptor subunit alpha-1/alpha-2/beta-2/gamma-2, sequence (P14867 whole entry): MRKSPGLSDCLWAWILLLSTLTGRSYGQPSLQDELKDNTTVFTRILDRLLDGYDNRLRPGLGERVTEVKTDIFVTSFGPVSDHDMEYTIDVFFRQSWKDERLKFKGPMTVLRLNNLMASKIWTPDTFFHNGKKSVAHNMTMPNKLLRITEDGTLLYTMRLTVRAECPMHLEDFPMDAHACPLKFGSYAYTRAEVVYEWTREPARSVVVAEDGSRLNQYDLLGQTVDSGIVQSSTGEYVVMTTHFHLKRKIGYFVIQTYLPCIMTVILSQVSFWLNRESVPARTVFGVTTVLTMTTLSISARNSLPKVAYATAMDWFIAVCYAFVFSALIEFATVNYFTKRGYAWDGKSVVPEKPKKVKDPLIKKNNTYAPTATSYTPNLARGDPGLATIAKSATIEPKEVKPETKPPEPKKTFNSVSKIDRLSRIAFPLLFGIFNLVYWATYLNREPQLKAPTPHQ
Gamma-aminobutyric acid receptor subunit alpha-1/alpha-2/beta-2/gamma-2, sequence (P47870 whole entry): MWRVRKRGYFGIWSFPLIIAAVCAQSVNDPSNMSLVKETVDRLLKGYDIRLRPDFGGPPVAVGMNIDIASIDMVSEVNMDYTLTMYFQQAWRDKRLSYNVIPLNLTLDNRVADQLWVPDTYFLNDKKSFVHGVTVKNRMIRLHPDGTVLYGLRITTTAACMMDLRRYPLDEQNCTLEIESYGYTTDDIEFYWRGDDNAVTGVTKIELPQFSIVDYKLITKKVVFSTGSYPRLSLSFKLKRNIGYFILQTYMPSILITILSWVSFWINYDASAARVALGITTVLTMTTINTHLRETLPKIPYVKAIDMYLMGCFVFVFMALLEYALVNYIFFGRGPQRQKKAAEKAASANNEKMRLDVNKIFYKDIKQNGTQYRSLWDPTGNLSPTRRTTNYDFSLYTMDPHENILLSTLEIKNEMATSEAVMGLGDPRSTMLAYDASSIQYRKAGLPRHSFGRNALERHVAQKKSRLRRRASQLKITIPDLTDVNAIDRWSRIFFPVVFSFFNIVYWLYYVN
Gamma-aminobutyric acid receptor subunit alpha-1/alpha-2/beta-2/gamma-2, sequence (P18507 whole entry): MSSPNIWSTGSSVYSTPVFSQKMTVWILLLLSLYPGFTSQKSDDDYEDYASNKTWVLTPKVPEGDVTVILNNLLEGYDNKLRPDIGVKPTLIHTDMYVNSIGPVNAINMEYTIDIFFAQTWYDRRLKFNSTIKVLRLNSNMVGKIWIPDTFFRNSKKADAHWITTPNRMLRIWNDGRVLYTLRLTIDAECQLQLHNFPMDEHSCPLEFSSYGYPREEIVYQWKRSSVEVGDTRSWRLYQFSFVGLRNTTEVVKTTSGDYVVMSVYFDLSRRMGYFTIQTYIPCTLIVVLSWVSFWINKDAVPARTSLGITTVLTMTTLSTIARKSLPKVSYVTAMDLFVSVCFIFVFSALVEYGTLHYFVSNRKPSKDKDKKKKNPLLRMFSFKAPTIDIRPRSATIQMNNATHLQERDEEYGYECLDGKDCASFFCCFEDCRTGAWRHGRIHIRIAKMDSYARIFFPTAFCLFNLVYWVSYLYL
Gamma-aminobutyric acid receptor subunit alpha-1/alpha-2/beta-2/gamma-2, sequence (P47869 whole entry): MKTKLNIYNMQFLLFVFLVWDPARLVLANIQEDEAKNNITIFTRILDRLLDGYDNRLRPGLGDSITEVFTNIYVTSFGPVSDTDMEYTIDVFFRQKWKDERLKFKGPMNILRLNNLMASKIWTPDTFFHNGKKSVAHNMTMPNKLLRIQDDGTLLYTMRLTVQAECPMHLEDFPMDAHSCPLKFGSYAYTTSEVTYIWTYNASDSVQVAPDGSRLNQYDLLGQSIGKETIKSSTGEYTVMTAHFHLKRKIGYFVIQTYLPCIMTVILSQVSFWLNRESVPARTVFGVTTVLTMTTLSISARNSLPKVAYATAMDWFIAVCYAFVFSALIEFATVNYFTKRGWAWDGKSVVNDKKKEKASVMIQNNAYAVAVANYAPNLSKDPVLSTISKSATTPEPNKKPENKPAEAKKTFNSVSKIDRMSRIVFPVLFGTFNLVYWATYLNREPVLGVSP

Mu-type opioid receptor = Mu-type opioid receptor (Homo sapiens, UniProt P35372); assay: biochemical; type: functional
Mu-type opioid receptor, sequence (P35372 whole entry): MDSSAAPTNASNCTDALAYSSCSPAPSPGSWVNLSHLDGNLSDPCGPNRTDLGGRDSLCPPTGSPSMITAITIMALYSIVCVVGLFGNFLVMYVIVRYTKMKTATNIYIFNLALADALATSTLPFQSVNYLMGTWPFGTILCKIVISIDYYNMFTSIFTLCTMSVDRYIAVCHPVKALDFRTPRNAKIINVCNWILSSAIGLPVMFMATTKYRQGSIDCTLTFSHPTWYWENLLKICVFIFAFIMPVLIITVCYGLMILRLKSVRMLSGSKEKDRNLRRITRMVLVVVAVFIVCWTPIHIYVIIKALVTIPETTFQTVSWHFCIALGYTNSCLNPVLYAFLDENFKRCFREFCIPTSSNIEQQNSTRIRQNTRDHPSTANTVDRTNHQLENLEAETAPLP

[3] = target: T3, Peroxisome proliferator-activated receptor gamma (Homo sapiens, UniProt P37231); type: functional
T3 sequence (P37231 whole entry): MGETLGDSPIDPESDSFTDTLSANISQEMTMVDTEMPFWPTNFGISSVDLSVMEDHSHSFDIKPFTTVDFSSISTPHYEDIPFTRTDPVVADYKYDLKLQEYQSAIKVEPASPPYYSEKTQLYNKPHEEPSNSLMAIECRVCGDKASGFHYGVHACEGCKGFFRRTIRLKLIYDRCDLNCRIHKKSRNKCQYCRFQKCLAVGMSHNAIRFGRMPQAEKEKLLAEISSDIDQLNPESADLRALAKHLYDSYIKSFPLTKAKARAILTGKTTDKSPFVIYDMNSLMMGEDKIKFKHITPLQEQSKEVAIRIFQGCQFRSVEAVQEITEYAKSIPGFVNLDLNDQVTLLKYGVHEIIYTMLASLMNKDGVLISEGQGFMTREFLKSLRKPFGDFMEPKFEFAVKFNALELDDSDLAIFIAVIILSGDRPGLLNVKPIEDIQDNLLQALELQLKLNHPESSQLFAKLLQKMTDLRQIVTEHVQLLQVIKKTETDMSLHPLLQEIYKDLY

[4] = target: T3, Peroxisome proliferator-activated receptor gamma; type: functional; remark: listed apart in the source
Also: assay procedure not described here.

SMILES | AC50 (Androgen receptor) | AC50 [2] | AC50 (Mu-type opioid receptor) | other results
OC[C@H]1NC[C@H](O)[C@@H](O)[C@H]1O | > 30 µM |  |  | AC50 (Adenosine receptor A1): > 30 µM
O=C(O)[C@@H](S)[C@@H](S)C(=O)O |  |  |  | AC50 (Adenosine receptor A1): > 30 µM
CCOC(=O)[C@H](CCc1ccccc1)N[C@@H](C)C(=O)N1Cc2ccccc2C[C@H]1C(=O)O |  |  |  | AC50 [1]: > 30 µM
CC#CC(=O)N1CCC[C@H]1c1nc(-c2ccc(C(=O)Nc3ccccn3)cc2)c2c(N)nccn12 [ACALABRUTINIB] | > 30 µM | > 30 µM |  | AC50 (Adenosine receptor A1): > 30 µM
CN(C)CCc1c[nH]c2ccc(CS(=O)(=O)N3CCCC3)cc12 [ALMOTRIPTAN] |  |  | > 30 µM | 
CC[N+](CC)(CCNC(=O)C(=O)NCC[N+](CC)(CC)Cc1ccccc1Cl)Cc1ccccc1Cl [AMBENONIUM] |  |  | 4.3 µM | 
NCCCNCCSP(=O)(O)O [AMIFOSTINE] |  |  | > 30 µM | 
CN(C)CCC=C1c2ccccc2CCc2ccccc21 [AMITRIPTYLINE] |  | > 30 µM |  | AC50 [1]: 1.81 µM
CC(=O)Oc1ccccc1C(=O)O [ASPIRIN] | > 30 µM | > 30 µM |  | AC50 [1]: > 30 µM
CC(C)C[C@H](NC(=O)[C@H](Cc1ccccc1)NC(=O)c1cnccn1)B(O)O [BORTEZOMIB] |  |  | > 30 µM | 
CN(C)CCOC(c1ccc(Cl)cc1)c1ccccn1 (configuration not stated) [CARBINOXAMINE] |  |  | > 30 µM | AC50 [3]: > 30 µM; AC50 [4]: > 30 µM
CCN(CC)CCn1c(=O)c(Cc2ccc(OC)cc2)nc2ccccc21 [CAROVERINE] |  |  | > 30 µM | 
NC(=O)C1(N2CCCCC2)CCN(CCCN2c3ccccc3CCc3ccccc32)CC1 [CARPIPRAMINE] | > 30 µM | > 30 µM |  | 
O=C(Cc1cccs1)N[C@@H]1C(=O)N2C(C(=O)[O-])=C(C[n+]3ccccc3)CS[C@H]12 [CEPHALORIDINE] | > 30 µM |  | > 30 µM | AC50 (Adenosine receptor A1): > 30 µM
CN1CCN(C(c2ccccc2)c2ccc(Cl)cc2)CC1 (configuration not stated) [CHLORCYCLIZINE] |  | > 30 µM |  | 
CN(C)CCCC1(c2ccc(F)cc2)OCc2cc(C#N)ccc21 (configuration not stated) [CITALOPRAM] |  |  |  | AC50 [1]: > 30 µM; AC50 (Adenosine receptor A1): > 30 µM
CCCCCCCCCCCCCCCC(=O)OC[C@H](COP(=O)([O-])OCC[N+](C)(C)C)OC(=O)CCCCCCCCCCCCCCC [COLFOSCERIL PALMITATE] | > 30 µM |  |  | AC50 (Adenosine receptor A1): > 30 µM
O=P1(N(CCCl)CCCl)NCCCO1 (configuration not stated) [CYCLOPHOSPHAMIDE ANHYDROUS] |  | > 30 µM |  | 
CC(C)Nc1cccnc1N1CCN(C(=O)c2cc3cc(NS(C)(=O)=O)ccc3[nH]2)CC1 [DELAVIRDINE] |  | > 10 µM |  | 
C[C@@H](CN1CC(=O)NC(=O)C1)N1CC(=O)NC(=O)C1 [DEXRAZOXANE] | > 30 µM |  |  | 
COC(=O)CCc1ccc(OCC(O)CNC(C)C)cc1 (configuration not stated) [ESMOLOL] |  |  | > 30 µM | 
C[C@]12CC[C@@H]3c4ccc(OC(=O)N(CCCl)CCCl)cc4CC[C@H]3[C@@H]1CC[C@@H]2OP(=O)(O)O [ESTRAMUSTINE PHOSPHATE] | > 30 µM |  |  | 
O=c1[nH]c2ccccc2n1CCN1CCN(c2cccc(C(F)(F)F)c2)CC1 [FLIBANSERIN] | > 30 µM | > 10 µM |  | 
O=c1[nH]cc(F)c(=O)[nH]1 [FLUOROURACIL] |  |  |  | AC50 (Adenosine receptor A1): > 30 µM

SMILES | AC50 (Androgen receptor) | AC50 [2] | AC50 (Mu-type opioid receptor) | other results
CCOC(=O)Nc1ccc(NCc2ccc(F)cc2)nc1N [FLUPIRTINE] |  |  | > 30 µM | 
O=C(O)[C@H](O)[C@@H](O)[C@H](O)[C@H](O)CO [GLUCONIC ACID] |  | > 30 µM |  | 
CCN(CCO)CCCC(C)Nc1ccnc2cc(Cl)ccc12 (configuration not stated) [HYDROXYCHLOROQUINE] |  |  | > 30 µM | 
N#Cc1ccnc(N2C(=O)CC[C@H]2C(=O)N(c2cncc(F)c2)[C@H](C(=O)NC2CC(F)(F)C2)c2ccccc2Cl)c1 [IVOSIDENIB] | > 30 µM | > 30 µM |  | AC50 [1]: > 50 µM
CNC1(c2ccccc2Cl)CCCCC1=O (configuration not stated) [KETAMINE] |  | > 30 µM |  | 
O=C(c1ccccc1)c1ccc2n1CCC2C(=O)O (configuration not stated) [KETOROLAC] |  |  | 0.0013 µM | 
Nc1nnc(-c2cccc(Cl)c2Cl)c(N)n1 [LAMOTRIGINE] |  |  |  | AC50 [1]: > 50 µM
N[C@@H](Cc1cc(I)c(Oc2cc(I)c(O)c(I)c2)c(I)c1)C(=O)O [LEVOTHYROXINE] |  |  | > 30 µM | AC50 [3]: > 30 µM; AC50 [4]: > 30 µM
CC(=O)NC[C@H]1CN(c2ccc(N3CCOCC3)c(F)c2)C(=O)O1 [LINEZOLID] |  |  | > 30 µM | AC50 [1]: > 50 µM
CCCCCCO[C@@H](C)c1cccc(-c2csc(NC(=O)c3cc(Cl)c(/C=C(\C)C(=O)O)c(Cl)c3)n2)c1OC [LUSUTROMBOPAG] | > 30 µM |  |  | AC50 (Adenosine receptor A1): > 30 µM
CO[C@@]1(NC(=O)C(C(=O)O)c2ccc(O)cc2)C(=O)N2C(C(=O)O)=C(CSc3nnnn3C)CO[C@@H]21 (some centres not stated) [MOXALACTAM] |  |  |  | AC50 (Adenosine receptor A1): > 30 µM
CS(=O)(=O)Nc1ccc([N+](=O)[O-])cc1Oc1ccccc1 [NIMESULIDE] |  | > 30 µM | > 30 µM | 
CCCCCCCC/C=C\CCCCCCCC(=O)O [OLEIC ACID] |  | > 30 µM |  | AC50 [3]: > 300 µM; AC50 [4]: > 300 µM
C#CCN(C)Cc1ccccc1 [PARGYLINE] |  |  | > 30 µM | AC50 (Adenosine receptor A1): > 30 µM
CC1=C(C/C=C(\C)CCC[C@H](C)CCC[C@H](C)CCCC(C)C)C(=O)c2ccccc2C1=O [PHYTONADIONE] |  | > 30 µM |  | 
NC(=O)C1(N2CCCCC2)CCN(CCCC(=O)c2ccc(F)cc2)CC1 [PIPAMPERONE] |  | > 30 µM |  | 
COc1cccc2c1C(=O)c1c(O)c3c(c(O)c1C2=O)C[C@@](O)(C(=O)CO)C[C@@H]3O[C@H]1C[C@H](N)[C@H](O[C@@H]2CCCCO2)[C@H](C)O1 [PIRARUBICIN] | > 30 µM |  |  | AC50 (Adenosine receptor A1): > 30 µM
CC(C)(Oc1ccc(Cl)cc1)C(=O)NC(=O)NCN1CCOCC1 [PLAFIBRIDE] | > 30 µM | > 30 µM |  | 
CC(C)NC[C@H](O)COc1ccc(O)cc1 [PRENALTEROL] | > 30 µM | > 30 µM |  | 
CCOc1ccccc1OCCN[C@H](C)Cc1ccc(OC)c(S(N)(=O)=O)c1 [TAMSULOSIN] |  |  | 3.8 µM | 
C[C@H](Cn1cnc2c(N)ncnc21)OCP(=O)(O)O [TENOFOVIR ANHYDROUS] |  |  | > 30 µM | 
Cc1ccc(C(C)C)c(O)c1 [THYMOL] |  | > 30 µM |  | 
Cc1c(C)c2c(c(C)c1O)CCC(C)(COc1ccc(CC3SC(=O)NC3=O)cc1)O2 (configuration not stated) [TROGLITAZONE] | 5.72 µM | > 3 µM | > 30 µM | 
Cc1cccc(C)c1NC(=O)c1cc(S(N)(=O)=O)c(Cl)cc1O [XIPAMIDE] |  | > 30 µM |  | 

From ChEMBL document CHEMBL5291721, “A preclinical secondary pharmacology resource illuminates target-adverse drug reaction associations of marketed drugs” (Nat Commun, 2023)
